“And” between values parts separate entries of the source, which are not always exact repeats. Equal entries are not always repeated. Where two headings read alike, the source gives them in different places.
Columns and labels:
BACE cleavage of APP [1] = assay: pharmacodynamic pilot study in rats (CSF and brain tissue); type: in vivo, Sprague-Dawley rats; conditions: 30 mg/kg orally
Cathepsin D (CatD) = Cathepsin D (CatD) (Homo sapiens (Human), UniProt P07339); assay: Cathepsin-D assay; type: biochemical
Chain of Cathepsin D (CatD) (P07339 65-412, species assumed): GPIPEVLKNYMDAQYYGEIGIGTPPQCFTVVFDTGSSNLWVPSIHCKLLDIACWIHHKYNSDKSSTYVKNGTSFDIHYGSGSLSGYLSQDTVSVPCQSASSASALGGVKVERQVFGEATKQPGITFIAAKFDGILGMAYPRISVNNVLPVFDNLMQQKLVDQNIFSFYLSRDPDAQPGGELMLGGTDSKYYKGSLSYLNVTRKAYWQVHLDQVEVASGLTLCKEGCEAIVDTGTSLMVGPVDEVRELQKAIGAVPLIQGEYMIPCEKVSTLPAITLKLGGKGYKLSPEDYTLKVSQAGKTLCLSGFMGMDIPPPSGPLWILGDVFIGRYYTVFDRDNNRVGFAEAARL
Procedure: For the assay, 4 μL of assay buffer was added to each well, followed by 2 μL of Cathepsin D (CatD) diluted in assay buffer to 5 ng/μL. Then, 2 μL of inhibitor, prepared to get a testing concentration of 20 μM, were added to appropriated wells and incubated for 30 minutes at room temperature. Afterwards, 2 μL of CatD substrate, diluted to 50 μM in assay buffer, were added to each well, after which the signal generated was read every 30 minutes at 25° C. for 1 hr. Signals shown in FIG. 6 are representative of readings at 1 hr.

pharmacokinetics in mice = type: in vivo
BACE-1 = BACE-1 (Homo sapiens (Human), UniProt P56817); assay: cell-free BACE enzyme assay with P5-P5′ substrate; type: biochemical
Chain of BACE-1 (P56817 46-501): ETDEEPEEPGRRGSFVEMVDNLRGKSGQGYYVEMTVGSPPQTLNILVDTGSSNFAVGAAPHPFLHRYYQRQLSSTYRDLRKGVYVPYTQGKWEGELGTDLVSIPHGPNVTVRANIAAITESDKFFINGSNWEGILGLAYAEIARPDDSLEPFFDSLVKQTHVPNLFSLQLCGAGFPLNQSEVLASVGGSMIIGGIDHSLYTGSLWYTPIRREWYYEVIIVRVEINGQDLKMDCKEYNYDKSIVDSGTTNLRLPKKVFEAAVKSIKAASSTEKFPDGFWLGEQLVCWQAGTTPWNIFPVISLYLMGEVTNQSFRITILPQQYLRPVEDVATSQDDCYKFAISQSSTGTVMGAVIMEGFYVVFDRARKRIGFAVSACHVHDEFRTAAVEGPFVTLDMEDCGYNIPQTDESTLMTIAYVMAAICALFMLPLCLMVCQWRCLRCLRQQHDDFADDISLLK
Procedure: For the assay, 4 μL of assay buffer was added to each well, followed by 2 μL of BACE-1 diluted in assay buffer to 7.5 ng/μL. Then, 2 μL of inhibitor, at concentrations along an 11 pt. two-fold dilution series starting at 0.5 μM, were added to appropriate wells and incubated for 30 minutes at room temperature. Afterwards, 2 μL of P5-P5′ BACE-1 substrate, diluted to 50 μM in assay buffer, were added to each well, after which the signal generated was read every 30 minutes at 25° C. for 2 hr.

PAMPA = type: in vitro ADME
[2] = tested on: neuregulin 1 (NRG-1) (Homo sapiens (Human)); assay: NRG1 cleavage assay in NRG1-BACE1 co-transfected 293T cells; type: cell-based
Procedure: (§1) 293T cells were plated in 96-well plates at 40,000 cells/well, incubated overnight at 37° C. and 5% CO2. Next day, cells were co-transfected with NRG1-BACE1 plasmids or PSGL1-BACE1 plasmids using Lipofectamine2000, as describe previously. Six hours after transfection, the reagents were removed and media containing the different compounds at various concentrations were loaded into each well.
(§2) After overnight incubation with the compounds, 20 μL of media were removed and added to a new plate. Then, 200 μl of reaction solution (0.1 M glycine, pH 10.4, 1 mM MgCl2, 1 mM ZnCl2 containing 1 mg/ml 4-nitrophenyl phosphate disodium salt hexahydrate, Sigma S0942) were loaded into each well of the plate. The absorbance was read at 405 nm for 60 min in 30 min intervals in a SpectraMax M5.
(§3) These compounds were diluted to 10 mM in DMSO. This solution was diluted to 20, 10, 2, 1, 0.2 and 0.02 μM in DMEM high Glucose containing 10% of FBS and 1% of Penicillin-Streptomycin containing 0.2% DMSO.

[3] = tested on: p-selectin glycoprotein ligand 1 (PSGL-1) (Homo sapiens (Human)); assay: PSGL1 cleavage assay in PSGL1-BACE1 co-transfected 293T cells; type: cell-based
Procedure: as §1, §2, §3

[4] = pharmacokinetic study in rats; type: in vivo; conditions: wildtype Sprague-Dawley rats, 30 mg/kg orally, at 2 hours
[5] = tested on: CHO-7W cells (stably transfected with human amyloid precursor protein wildtype); assay: CHO-7W cell assay (AlphaLISA of media); type: cell-based, Chinese hamster; conditions: treatment for 24 hours
Procedure: For the assay, 50 μL of CHO-7W cells were added to each well at 4×10^5 cells/mL. Then, 50 μL of inhibitor, prepared for tested concentrations, were added to appropriated wells and incubated for 24 hours at 37° C. Afterwards, media from each well is collected and assayed using an AlphaLISA assay for respective analytes.

BACE cleavage of APP [6] = assay: pilot study in AD model mice; type: in vivo; conditions: orally 30 mg/kg/day for 10 days
[7] = cell-free, several replicate values per cell, some flagged 's' (flag not defined), read-out: BACE1 IC50

Structure (SMILES)	sAPPβ in CSF (BACE cleavage of APP [1]; at 3 and 6 hours, vs untreated controls)	Aβ1-40 levels (BACE cleavage of APP [1]; compared to control, decrease persisted to 24 hours)	IC50 (Cathepsin D (CatD))	brain penetrance (pharmacokinetics in mice)	peak in brain (pharmacokinetics in mice; oral delivery at 30 mg/kg, one hour post-dosing)	IC50 (BACE-1; cell-free BACE assay)	IC50 (BACE-1; [7])	PAMPA (PAMPA)	inhibitory activity in cleavage of neuregulin 1 (NRG-1) [2]	inhibitory activity in cleavage of p-selectin glycoprotein ligand 1 (PSGL-1) [3]	brain peak [4]	amyloid-beta (Aβ) [5]	soluble amyloid precursor protein beta (sAPPβ) [5]	BACE/γ-secretase product Aβ (BACE cleavage of APP [6])	decrease of APP-derived BACE cleavage product βCTF (beta C-terminal fragment) (BACE cleavage of APP [6])
Cc1cc(C2(c3cccc(-c4cncnc4)c3)N=C(N)N(C)C2=O)ccc1OC(F)F (racemic) [FAH-65, 2-amino-5-(4-(difluoromethoxy)-3-methylphenyl)-3-methyl-5-(3-(pyrimidin-5-yl)phenyl)-3,5-dihydro-4H-imidazol-4-one]	reduced	decreased	47100 nM	brain-penetrant	74 ng/g	22 nM	5 to 10 nM and 19 nM and 11.2 nM and 16 nM and 11 nM and 15 nM and 24 nM and 14 nM	0.44 and 0.45 and 0.46 and 0.47 and 0.52 and 0.48 and 0.49	little cleavage	little cleavage	182 ng/g	significantly decreased	significantly decreased	trend to decrease	significantly
Cc1cc(C2(c3cccc(-c4cccnc4)c3)N=C(N)N(C)C2=O)ccc1OC(F)F (centres unmarked) [FAH-32]	–	–	> 100000 nM	–	–	–	11 nM and 16 nM and 17 nM	0.91 and 0.92	–	–	–	–	–	–	–
Cc1cc(C2(c3cccc(-c4cnccn4)c3)N=C(N)N(C)C2=O)ccc1OC(F)F (centres unmarked) [FAH-86]	–	–	> 50000 nM	–	–	–	–	0.68	–	–	–	–	–	–	–

Reference: patent US20210101879A1, “AMYLOID PROTEIN-SELECTIVE BACE INHIBITORS (ASBIs) FOR ALZHEIMER?S DISEASE” (The Regents of the University of California, priority 2018, published 2021)
